Measurements reported in US11279687B2, “Compounds and compositions for the inhibition of NAMPT” (Valo Health, Inc., priority 2010, dated 2022).
Read-outs that look alike come from different tables or passages of the source.

Columns and labels:
A2780 cells = test: In-vitro cell proliferation assay (SRB), A2780 cells; assay type: cell-based; conditions: A2780 cells, 72 hours, SRB, read-out: A2780 IC50;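 further: viable cell number read as SRB absorbance, background from media-only wells subtracted, IC50 interpolated from percent inhibition at two bracketing compound concentrations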
NAMPT = NAMPT (Homo sapiens (Human), UniProt P43490); test: NAMPT biochemical inhibition assay (NMN quantified by mass spectrometry); conditions: NAMPT biochemical inhibition; read-out: Biochem IC50
Chain of NAMPT (P43490 whole entry): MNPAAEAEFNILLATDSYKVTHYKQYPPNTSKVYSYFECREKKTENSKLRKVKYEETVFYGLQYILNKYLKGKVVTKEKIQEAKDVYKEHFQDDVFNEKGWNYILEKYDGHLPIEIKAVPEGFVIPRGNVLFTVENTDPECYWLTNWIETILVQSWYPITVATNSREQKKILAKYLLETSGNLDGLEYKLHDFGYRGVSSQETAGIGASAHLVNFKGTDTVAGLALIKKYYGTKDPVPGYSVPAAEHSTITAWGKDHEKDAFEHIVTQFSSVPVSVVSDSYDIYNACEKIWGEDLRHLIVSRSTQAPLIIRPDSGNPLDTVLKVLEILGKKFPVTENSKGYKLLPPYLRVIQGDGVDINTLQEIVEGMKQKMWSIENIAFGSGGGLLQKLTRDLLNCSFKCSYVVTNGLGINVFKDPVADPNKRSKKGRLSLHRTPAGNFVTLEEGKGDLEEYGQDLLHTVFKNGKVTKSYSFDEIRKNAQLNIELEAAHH

SMILES | IC50 (A2780 cells; Homo sapiens, A2780, 72 h) | IC50 (NAMPT) | IC50 (A2780 cells)
CCN(Cc1ccccc1)S(=O)(=O)c1ccc(NC(=O)NCc2cccnc2)cc1 [3-{4-[benzyl(ethyl)sulfamoyl]phenyl}-1-(pyridin-3-ylmethyl)urea] | 7 nM | 0.9 nM | –
CN(Cc1ccccc1)S(=O)(=O)c1ccc(NC(=O)NCc2cccnc2)cc1 [3-{4-[benzyl(methyl)sulfamoyl]phenyl}-1-(pyridin-3-ylmethyl)urea] | 107 nM | 1.1 nM | –
CC(C)N(Cc1ccccc1)S(=O)(=O)c1ccc(NC(=O)NCc2cccnc2)cc1 [3-{4-[benzyl(propan-2-yl)sulfamoyl]phenyl}-1-(pyridin-3-ylmethyl)urea] | 26 nM | 2 nM | –
CCN(C1CCCCC1)S(=O)(=O)c1ccc(NC(=O)NCc2cccnc2)cc1 [3-{4-[cyclohexyl(ethyl)sulfamoyl]phenyl}-1-(pyridin-3-ylmethyl)urea] | 123 nM | 5 nM | –
O=C(NCc1ccc[n+]([O-])c1)Nc1ccc([S+]([O-])c2ccc(Cl)cc2)cc1 (stereo not shown) [3-{[({4-[(4-chlorobenzene)sulfinyl]phenyl}carbamoyl)amino]methyl}pyridin-1-ium-1-olate] | – | 444 nM | 20600 nM
O=C(NCc1ccc[n+]([O-])c1)Nc1ccc(S(=O)(=O)c2ccc(Cl)cc2)cc1 [3-{[({4-[(4-chlorobenzene)sulfonyl]phenyl}carbamoyl)amino]methyl}pyridin-1-ium-1-olate] | – | 728 nM | > 30000 nM
O=C(Nc1cccnc1)c1ccc(S(=O)(=O)c2ccccc2)cc1 [4-(benzenesulfonyl)-N-(pyridin-3-yl)benzamide] | 2730 nM | 1890 nM | –
NC(=O)c1ccc(CNC(=O)Nc2ccc(S(=O)(=O)N3CCCCC3)cc2)cn1 [5-[({[4-(piperidine-1-sulfonyl)phenyl]carbamoyl}amino)methyl]pyridine-2-carboxamide] | 27500 nM | > 10000 nM | –
CCN(CC)C(=O)[C@H]1CCCN(S(=O)(=O)c2ccc(NC(=O)NCc3cccnc3)cc2)C1 [(3S)-N,N-diethyl-1-[(4-{[(pyridin-3-ylmethyl)carbamoyl]amino}benzene)sulfonyl]piperidine-3-carboxamide] | – | 6 nM | 25 nM
CCN(CC)C(=O)c1ccccc1NS(=O)(=O)c1ccc(NC(=O)NCc2cccnc2)cc1 [N,N-diethyl-2-[(4-{[(pyridin-3-ylmethyl)carbamoyl]amino]benzene)sulfonamido]benzamide] | – | 8 nM | 6 nM
CCN(CC)C(=O)CN1CCN(S(=O)(=O)c2ccc(NC(=O)NCc3cccnc3)cc2)CC1 [N,N-diethyl-2-{4-[(4-{[(pyridin-3-ylmethyl)carbamoyl]amino}benzene)sulfonyl]piperazin-1-yl}acetamide] | 45 nM | 5 nM | –
CCN(CC)C(=O)c1cc(F)cc(S(=O)(=O)c2ccc(NC(=O)NCc3cccnc3)cc2)c1 [N,N-diethyl-3-fluoro-5-[(4-{[(pyridin-3-ylmethyl)carbamoyl]amino[benzene)sulfonyl]benzamide] | – | 1.2 nM | 1.5 nM
CCN(CC)C(=O)c1ccc(F)c(S(=O)(=O)c2ccc(NC(=O)NCc3cccnc3)cc2)c1 [N,N-diethyl-4-fluoro-3-[(4-{[(pyridin-3-ylmethyl)carbamoyl]amino[benzene)sulfonyl]benzamide] | – | 2.4 nM | 88.5 nM
CN(C)C(=O)C1CCN(S(=O)(=O)c2ccc(NC(=O)NCc3cccnc3)cc2)CC1 [N,N-dimethyl-1-[(4-{[(pyridin-3-ylmethyl)carbamoyl]amino}benzene)sulfonyl]piperidine-4-carboxamide] | 164 nM | 9 nM | –
CN(C)C(=O)c1cccc(S(=O)(=O)c2ccc(NC(=O)NCc3cccnc3)cc2)c1 [N,N-dimethyl-3-[(4-{[(pyridin-3-ylmethyl)carbamoyl]amino[benzene)sulfonyl]benzamide] | – | 7.4 nM | 100 to 1000 nM

Second part, led by results:

IC50 (A2780 cells; Homo sapiens, A2780, 72 h) | IC50 (NAMPT) | SMILES | IC50 (A2780 cells)
489 nM | 4 nM | Cc1ccc(F)cc1S(=O)(=O)c1ccc(NC(=O)NCc2cccnc2)cc1 [3-{4-[(5-fluoro-2-methylbenzene)sulfonyl]phenyl}-1-(pyridin-3-ylmethyl)urea] | –
79 nM | 2 nM | COc1ccc(C)c(NS(=O)(=O)c2ccc(NC(=O)NCc3cccnc3)cc2)c1 [3-{4-[(5-methoxy-2-methylphenyl)sulfamoyl]phenyl}-1-(pyridin-3-ylmethyl)urea] | –
6 nM | 8 nM | O=C(NCc1ccc2nccn2c1)Nc1ccc(S(=O)(=O)N2CC3CCC(C2)O3)cc1 [3-{imidazo[1,2-a]pyridin-6-ylmethyl}-1-(4-{8-oxa-3-azabicyclo[3.2.1]octane-3-sulfonyl}phenyl)urea] | –
216 nM | 80.5 nM | O=C(NCc1cccnc1)c1ccc(S(=O)(=O)c2ccccc2)cc1 [4-(benzenesulfonyl)-N-(pyridin-3-ylmethyl)benzamide] | –
1310 nM | 651 nM | O=C(Nc1ccncc1)c1ccc(S(=O)(=O)c2ccccc2)cc1 [4-(benzenesulfonyl)-N-(pyridin-4-yl)benzamide] | –
25.9 nM | 30.8 nM | O=C(NCc1ccn2ccnc2c1)c1ccc(S(=O)(=O)c2ccccc2)cc1 [4-(benzenesulfonyl)-N-{imidazo[1,2-a]pyridin-7-ylmethyl}benzamide] | –
3.92 nM | 19.5 nM | O=C(NCc1ccc2nccn2c1)c1ccc(S(=O)(=O)c2ccccc2Cl)cc1 [4-[(2-chlorobenzene)sulfonyl]-N-{imidazo[1,2-a]pyridin-6-ylmethyl}benzamide] | –
5.71 nM | 17.7 nM | O=C(NCc1ccc2nccn2c1)c1ccc(S(=O)(=O)c2cc(F)cc(F)c2)cc1 [4-[(3,5-difluorobenzene)sulfonyl]-N-{imidazo[1,2-a]pyridin-6-ylmethyl}benzamide] | –
6.39 nM | 12.1 nM | O=C(NCc1ccc2nccn2c1)c1ccc(S(=O)(=O)c2cccc(Cl)c2)cc1 [4-[(3-chlorobenzene)sulfonyl]-N-{imidazo[1,2-a]pyridin-6-ylmethyl}benzamide] | –
7.12 nM | 138 nM | O=C(NCc1ccc2nccn2c1)c1ccc(S(=O)(=O)Nc2cccc(Cl)c2)cc1 [4-[(3-chlorophenyl)sulfamoyl]-N-{imidazo[1,2-a]pyridin-6-ylmethyl}benzamide] | –
31.2 nM | 4720 nM | COc1ccc(Cl)cc1NS(=O)(=O)c1ccc(C(=O)NCCc2cccnc2)cc1 [4-[(5-chloro-2-methoxyphenyl)sulfamoyl]-N-[2-(pyridin-3-yl)ethyl]benzamide] | –
2.3 nM | 2.16 nM | COc1ccc(Cl)cc1NS(=O)(=O)c1ccc(C(=O)NCc2ccc3nccn3c2)cc1 [4-[(5-chloro-2-methoxyphenyl)sulfamoyl]-N-{imidazo[1,2-a]pyridin-6-ylmethyl}benzamide] | –
55 nM | 16 nM | CN(C)C(=O)c1ccccc1NS(=O)(=O)c1ccc(NC(=O)NCc2cccnc2)cc1 [N,N-dimethyl-2-[(4-{[(pyridin-3-ylmethyl)carbamoyl]amino}benzene)sulfonamido]benzamide] | –
53 nM | 5 nM | CN(C)C(=O)c1ccc(S(=O)(=O)c2ccc(NC(=O)NCc3cccnc3)cc2)cc1 [N,N-dimethyl-4-[(4-{[(pyridin-3-ylmethyl)carbamoyl]amino}benzene)sulfonyl]benzamide] | –
